The test system of the first assay is Zea mays (corn). Description: Drought stress test on sprayed greenhouse plants, visual damage scoring (Table 2). In kind it is in vivo. Also on record: key: reduction in damage intensity, damage assessed in %. The settings on record: efficacy = reduction in damage intensity, dosage 2.5 g/ha, spray WP, 600 l/ha water. On the procedure:
(§1) Seeds of monocotyledonous and dicotyledonous crop plants are sown in sandy loam in plastic or wood-fiber pots, covered with soil or sand and cultivated in a greenhouse under good growth conditions. The test plants are treated at the early leaf stage (BBCH10-BBCH13). To assure uniform water supply before commencement of stress, the potted plants are supplied with water by dam irrigation prior to substance application. The inventive compounds, formulated in the form of wettable powders (WP), are sprayed onto the green parts of the plants as an aqueous suspension at an equivalent water application rate of 600 I/ha with addition of 0.2% wetting agent (e.g. agrotin). Substance application is followed immediately by stress treatment of the plants. For this purpose, the wood-fiber pots are transferred in plastic inserts in order to prevent them from subsequently drying out too quickly. Drought stress is induced by gradual drying out under the following conditions: “Day”: 14 hours with illumination at 26-30° C. “Night”: 10 hours without illumination at 18-20° C. The duration of the respective stress phases is guided mainly by the condition of the stressed control plants. […] The end of the stress phase is followed by an approx. 4-14-day recovery phase, during which the plants are once again kept under good growth conditions in a greenhouse. The duration of the recovery phase is guided mainly by when the trial plants have attained a state which enables visual scoring of potential effects, and is therefore variable. […] The damage intensity is at first assessed in percent.
Regarding `COCCNC(=O)c1cc(Br)c(C)[nH]c1=O` [compound 2423], the “E (ZEAMX)” value was above 5.

Still in this assay, the particulars now being: efficacy = reduction in damage intensity, dosage 25 g/ha, spray WP, 600 l/ha water.
As to `CCCNC(=O)c1cc(Cl)c(C)[nH]c1=O` [compound 2270], the “E (ZEAMX)” value is reported as above 5.

Consider `COCCNC(=O)c1cc(C)c(C)[nH]c1=O` [compound 46], for which the “E (ZEAMX)” value was above 5.

`CCNC(=O)c1cc(Cl)c(C(F)(F)F)[nH]c1=O` [compound 1212]: the “E (ZEAMX)” value is reported as above 5.

In the case of `CCc1cc(C(=O)NC(C)C)c(=O)[nH]c1C(F)(F)C(F)(F)F` [compound 664], the “E (ZEAMX)” value is above 5.

On to `CCc1[nH]c(=O)c(C(=O)N(C)CC(=O)OC)cc1C` [compound 2817], for which the “E (ZEAMX)” value is reported as above 5.

As for `COC(=O)CNC(=O)c1cc(C)c(C)[nH]c1=O` [compound 59], the “E (ZEAMX)” value is above 5.

`CCc1cc(C(=O)NCC(=O)OC)c(=O)[nH]c1C(F)(F)F` [compound 610]: the “E (ZEAMX)” value is listed as above 5.

Regarding `CCc1cc(C(=O)NC2CCC2)c(=O)[nH]c1C(F)(F)Cl` [compound 777], the “E (ZEAMX)” value was above 5.

On to `CCc1cc(C(=O)NC(C)CC(C)C)c(=O)[nH]c1C(F)(F)C(F)(F)F` (stereo not shown) [compound 696], for which the “E (ZEAMX)” value is recorded as above 5.

As for `CCCNC(=O)c1cc(C)c(C(F)(F)C(F)(F)F)[nH]c1=O` [compound 223], the “E (ZEAMX)” value is given as above 5.

Staying with this assay, now noted: efficacy = reduction in damage intensity, dosage 250 g/ha, spray WP, 600 l/ha water.
Take `CNC(=O)c1cc(C)c(C(F)(F)C(F)(F)F)[nH]c1=O` [compound 221]: the “E (ZEAMX)” value is on record as above 5.

For the molecule `CCNC(=O)c1cc(C)c(C(F)(F)C(F)(F)F)[nH]c1=O` [compound 222], the “E (ZEAMX)” value is on record as above 5.

As to `Cc1cc(C(=O)NCC(=O)O)c(=O)[nH]c1C(F)(F)F` [compound 170], the “E (ZEAMX)” value is reported as above 5.

In the case of `Cc1cc(C(=O)N(C)c2ccccc2)c(=O)[nH]c1C(F)(F)F` [compound 219, N,5-Dimethyl-2-oxo-N-phenyl-6-(trifluoromethyl)-1,2-dihydropyridine-3-carboxamide], the “E (ZEAMX)” value is above 5.

As to `Cc1cc(C(=O)NC(C)CC(C)C)c(=O)[nH]c1C` (stereo not shown) [compound 36], the “E (ZEAMX)” value is recorded as above 5.

For `CCCNC(=O)c1cc(C)c(C)[nH]c1=O` [compound 3], the “E (ZEAMX)” value was above 5.

Turning to `CC(C)C(C)NC(=O)c1cc(Cl)c(C(F)(F)C(F)(F)Cl)[nH]c1=O` (stereo not shown) [compound 1578], the “E (ZEAMX)” value is above 5.

Take `Cc1[nH]c(=O)c(C(=O)NCCC(C)C)cc1Cl` [compound 2290]: the “E (ZEAMX)” value is recorded as above 5.

On to `CN(C)C(=O)c1cc(Br)c(C(F)(Cl)C(F)(F)F)[nH]c1=O` (stereo not shown) [compound 2085], for which the “E (ZEAMX)” value is above 5.

Consider `CCCc1cc(C(=O)NCC(=O)OC)c(=O)[nH]c1C(F)(F)C(F)(F)F` [compound 1159], for which the “E (ZEAMX)” value is reported as above 5.

The next assay concerns Triticum aestivum. Description: Drought stress test on sprayed greenhouse plants, visual damage scoring (Table 4). In kind it is in vivo. The following applies: efficacy = reduction in damage intensity, dosage 25 g/ha, spray WP, 600 l/ha water. On the procedure: as §1
Turning to `CCc1[nH]c(=O)c(C(=O)NCCC(C)C)cc1Cl` [compound 3170], the “E (TRZAS)” value is recorded as above 5.

With `CCc1cc(C(=O)N(C)CC(=O)OC)c(=O)[nH]c1C(F)(F)C(F)(F)F` [compound 770], the “E (TRZAS)” value is above 5.

As for `CCNC(=O)c1cc(Cl)c(CC)[nH]c1=O` [compound 3149], the “E (TRZAS)” value is above 5.

For `CCCc1[nH]c(=O)c(C(=O)N(C)CC(=O)OC)cc1I` [compound 3917], the “E (TRZAS)” value is listed as above 5.

Regarding `CCCc1[nH]c(=O)c(C(=O)N(C)CC(=O)OC)cc1Br` [compound 3807], the “E (TRZAS)” value is above 5.

Consider `CCCc1[nH]c(=O)c(C(=O)NCC)cc1Cl` [compound 3699], for which the “E (TRZAS)” value is reported as above 5.

Regarding `CCCc1[nH]c(=O)c(C(=O)NC(C)COC)cc1CC` (stereo not shown) [compound 3639], the “E (TRZAS)” value is reported as above 5.

The same assay, now with this note: efficacy = reduction in damage intensity, dosage 250 g/ha, spray WP, 600 l/ha water.
With `COCCCNC(=O)c1cc(C)c(C(F)(F)C(F)(F)F)[nH]c1=O` [compound 274], the “E (TRZAS)” value was above 5.

Take `CCc1[nH]c(=O)c(C(=O)NCCC(C)C)cc1C` [compound 2840]: the “E (TRZAS)” value is recorded as above 5.

Take `COC(=O)CN(C)C(=O)c1cc(C)c(C)[nH]c1=O` [compound 4027]: the “E (TRZAS)” value is reported as above 5.

In the case of `Cc1cc(C(=O)NCCC(C)C)c(=O)[nH]c1C(F)(F)C(F)(F)F` [compound 243], the “E (TRZAS)” value is given as above 5.

The next assay relates to Brassica napus. In words: Drought stress test on sprayed greenhouse plants, visual damage scoring (Table 3). In kind it is in vivo. Also on record: key: reduction in damage intensity, damage assessed in %. The settings on record: efficacy = reduction in damage intensity, dosage 25 g/ha, spray WP, 600 l/ha water. The procedure: as §1
In the case of `CNC(=O)c1cc(I)c(C(F)(F)F)[nH]c1=O` [compound 2220], the “E (BRSNS)” value is above 5.

Regarding `CCC(CC)NC(=O)c1cc(Br)c(C(F)(Cl)C(F)(F)F)[nH]c1=O` (stereo not shown) [compound 2020], the “E (BRSNS)” value is listed as above 5.

For `CCOC(=O)C1CCCCN1C(=O)c1cc(Cl)c(C(F)(F)Cl)[nH]c1=O` (stereo not shown) [compound 1744, 1-({5′-chloro-6′-[chloro(difluoro)methyl]-2′-oxo-1′,2′-dihydropyridin-3′-yl}carbonyl)-piperidine-2-carboxylic acid ethyl ester], the “E (BRSNS)” value was above 5.

`CCc1cc(C(=O)NCC(OC)OC)c(=O)[nH]c1C(F)(F)Cl` [compound 813]: the “E (BRSNS)” value is above 5.

As for `Cc1cc(C(=O)NC(C)C(C)C)c(=O)[nH]c1C(F)(F)C(F)(F)F` (stereo not shown) [compound 258], the “E (BRSNS)” value was above 5.

Regarding `Cc1cc(C(=O)NCC2CC2)c(=O)[nH]c1C(F)(F)C(F)(F)F` [compound 233], the “E (BRSNS)” value was above 5.

Take `CCOC(=O)C1CCCCN1C(=O)c1cc(C)c(C(F)(F)F)[nH]c1=O` (stereo not shown) [compound 204]: the “E (BRSNS)” value is on record as above 5.

`C=C(C)CNC(=O)c1cc(C)c(C(F)(F)C(F)(F)F)[nH]c1=O` [compound 247]: the “E (BRSNS)” value is listed as above 5.

On to `CC(C)CC(C)NC(=O)c1cc(Br)c(C(F)(Cl)C(F)(F)F)[nH]c1=O` (stereo not shown) [compound 2016], for which the “E (BRSNS)” value is above 5.

For the molecule `Cc1cc(C(=O)NC2CC2)c(=O)[nH]c1C(F)(F)C(F)(F)F` [compound 225], the “E (BRSNS)” value is reported as above 5.

In the case of `Cc1cc(C(=O)NC(C)CC(C)C)c(=O)[nH]c1C(F)(Cl)C(F)(F)F` (stereo not shown) [compound 2246], the “E (BRSNS)” value is listed as above 5.

On to `COCCCNC(=O)c1cc(I)c(C(F)C(F)(F)F)[nH]c1=O` (stereo not shown) [compound 2233], for which the “E (BRSNS)” value is above 5.

With `Cc1cc(C(=O)NC(C)CC(C)C)c(=O)[nH]c1C(F)(F)C(F)(F)F` (stereo not shown) [compound 256], the “E (BRSNS)” value is listed as above 5.

Staying with this assay, now noted: efficacy = reduction in damage intensity, dosage 50 g/ha, spray WP, 600 l/ha water.
With `C=CCNC(=O)c1cc(Br)c(C(F)(F)F)[nH]c1=O` [compound 1785], the “E (BRSNS)” value was above 5.

The same assay, now with this note: efficacy = reduction in damage intensity, dosage 250 g/ha, spray WP, 600 l/ha water.
As for `Cc1cc(C(=O)NCC2CC2)c(=O)[nH]c1C` [compound 13], the “E (BRSNS)” value was above 5.

With `COCCNC(=O)c1cc(C)c(C)[nH]c1=O` [compound 46], the “E (BRSNS)” value is listed as above 5.

As for `CCc1cc(C(=O)NC2CC2)c(=O)[nH]c1C(F)(F)C(F)(F)F` [compound 665, N-Cyclopropyl-5-ethyl-2-oxo-6-(pentafluoroethyl)-1,2-dihydropyridine-3-carboxamide], the “E (BRSNS)” value is listed as above 5.

For the molecule `Cc1cc(C(=O)NC(C)C(F)(F)F)c(=O)[nH]c1C(F)(F)C(F)(F)C(F)(F)F` (stereo not shown) [compound 2251], the “E (BRSNS)” value was above 5.

Take `CCC(C)NC(=O)c1cc(C)c(C)[nH]c1=O` (stereo not shown) [compound 29]: the “E (BRSNS)” value is on record as above 5.

In the case of `CCCc1cc(C(=O)NCCCOC)c(=O)[nH]c1C(F)(F)C(F)(F)F` [compound 1154], the “E (BRSNS)” value is reported as above 5.

Take `C=CCNC(=O)c1cc(Cl)c(C(F)(F)C(F)(F)Cl)[nH]c1=O` [compound 1565]: the “E (BRSNS)” value is on record as above 5.

Turning to `CC(C)C(C)NC(=O)c1cc(Cl)c(C(F)(F)Cl)[nH]c1=O` (stereo not shown) [compound 1688], the “E (BRSNS)” value is listed as above 5.

For the molecule `CCCC(C)NC(=O)c1cc(C)c(C)[nH]c1=O` (stereo not shown) [compound 32, 5,6-Dimethyl-2-oxo-N-(pentan-2-yl)-1,2-dihydropyridine3-carboxamide], the “E (BRSNS)” value was above 5.
